Laboratory results as given in patent US10266544B2, “Aryl substituted aminomethyl spectinomycin analogs as antibacterial agents” (ST. JUDE CHILDREN'S RESEARCH HOSPITAL, INC., priority 2013, dated 2019).
Counter-ions that a name gives are not always drawn. Like-named read-outs stand apart in the source and are kept apart here.

Legend:
Format in all cases: cell-based
[1] = system: MRSA, Staphylococcus aureus (NRS70); assay: MIC determination, microbroth dilution; conditions: read-out: MIC MRSA
[2] = system: Haemophilus influenza (ATCC 49247); assay: microbe, parasite or virus in culture; conditions: ATCC49247; Haemophilus influenza; 4 μg per disc; range of at least two experiments; read-out: Zone of inhibition H.i.
[3] = system: Neisseria meningitides (ATCC 13077); assay: Disc diffusion assay; conditions: ATCC13077, 4 μg per disc, read-out: Zone of inhibition N.m.
[4] = system: Enterococcus faecalis (ATCC 33186); assay: MIC determination, microbroth dilution
[5] = system: live vaccine strain (LVS) of Francisella tularensis; assay: microbe, parasite or virus in culture; conditions: Francisella tularensis, read-out: MIC F.t.
[6] = system: Neisseria gonorrhoeae (ATCC 49226); assay: Disc diffusion assay; conditions: ATCC49226, 4 μg per disc, read-out: Zone of inhibition N.g.
[7] = system: Staphylococcus aureus (ATCC 29213); assay: MIC determination, microbroth dilution; conditions: ATCC29213; Staphylococcus aureus (ATCC 29213); read-out: MIC S.a.
[8] = system: Pseudomonas aeruginosa (PA01); assay: MIC determination, microbroth dilution
[9] = system: Escherichia coli (ATCC 700926); assay: MIC determination, microbroth dilution; conditions: ATCC700926; Escherichia coli (ATCC 700926); read-out: MIC E.c.
[10] = system: acinetobacter baumannii (ATCC 19606); assay: MIC determination, microbroth dilution; conditions: ATCC19606
[11] = system: Proteus mirabilis (ATCC 25933); assay: MIC determination, microbroth dilution; conditions: ATCC25933
[12] = system: Stenotrophomonas maltophilia (ATCC 13637); assay: MIC determination, microbroth dilution; conditions: ATCC13637; Stenotrophomonas maltophilia (ATCC 13637); read-out: MIC S.m.
Moraxella catarrhalis = assay: MIC determination (Table 6)
[13] = system: Legionella pneumophila (ATCC 33153); assay: microbe, parasite or virus in culture; conditions: ATCC33153, 72 h, read-out: Zone of inhibition L.p.
E. coli K12 ΔtolC = assay: microbe, parasite or virus in culture; conditions: Escherichia coli, read-out: MIC E.c. Δtolc
[14] = system: Streptococcus pneumoniae (R6); assay: MIC determination, microbroth dilution
[15] = system: Bacillus anthracis, Sterne 34F2; assay: microbe, parasite or virus in culture; conditions: STERNE34F2, read-out: MIC B.a.
[16] = system: Neisseria gonorrhoeae (ATCC 49226); assay: Agar MIC determination (Alamar Blue); conditions: ATCC49226, agar MIC, read-out: MIC N.g.
[17] = system: Burkholderia cepacia (ATCC 25416); assay: MIC determination, microbroth dilution; conditions: Burkholderia cepacia
Listeria monocytogenes = assay: MIC determination (Table 6)
Bacillus anthracis = assay: microbe, parasite or virus in culture; conditions: read-out: MIC B.a.
[18] = system: M. tuberculosis clinical isolates; assay: microbe, parasite or virus in culture; conditions: Mycobacterium tuberculosis, H37RV, read-out: MIC H37Rv
[19] = system: Klebsiella pneumoniae (ATCC 33495); assay: MIC determination, microbroth dilution; conditions: ATCC33495
Yersinia pestis = assay: microbe, parasite or virus in culture; conditions: read-out: MIC Y.p.
[20] = system: Streptococcus pneumoniae clinical isolates representing several serotypes; assay: MIC determination, Streptococcus pneumoniae panel of clinical isolates (Table 7); conditions: Streptococcus pneumoniae
[21] = system: Proteus vulgaris (ATCC 33420); assay: MIC determination, microbroth dilution; conditions: ATCC33420
[22] = system: Bacillus subtilis (ATCC 23857); assay: MIC determination, microbroth dilution; conditions: ATCC23857; Bacillus subtilis (ATCC 23857); read-out: MIC B.s.
[23] = system: Streptococcus pyogenes (ATCC 700294); assay: MIC determination, microbroth dilution; conditions: ATCC700294; Streptococcus pyogenes (ATCC 700294); read-out: MIC S. py.
[24] = Streptococcus pneumoniae (R6), read-out: MIC S. pn.
[25] = Streptococcus pneumoniae, S. pneumoniae R6, Drug Susceptible, read-out: MIC R6
[26] = ATCC25416, read-out: MIC B.c., Burkholderia cepacia (ATCC 25416)
[27] = ATCC25416, read-out: MIC B.c., Burkholderia cepacia, Table 6
[28] = BAA1407, S. pneumoniae BAA-1407, Macrolide Resistant, read-out: MIC BAA-1407
[29] = S. pneumoniae A66.1x, Drug Susceptible, read-out: MIC A66.1x
[30] = S. pneumoniae BHN97x, Drug Susceptible, read-out: MIC BHN97x
[31] = S. pneumoniae D39X, Drug Susceptible, read-out: MIC D39X
[32] = S. pneumoniae Daw7, PenG Resistant, read-out: MIC Daw7
[33] = S. pneumoniae Daw8, PenG Resistant, read-out: MIC Daw8
[34] = S. pneumoniae Daw9, PenG Resistant, read-out: MIC Daw9
[35] = S. pneumoniae Daw62, PenG Resistant, read-out: MIC Daw62
[36] = S. pneumoniae Daw64, PenG Resistant, read-out: MIC Daw64
[37] = S. pneumoniae OVA6, Macrolide Resistant, read-out: MIC OVA6
[38] = S. pneumoniae T4X, Drug Susceptible, read-out: MIC T4X

SMILES: CCc1ccc(CNC[C@]2(O)C[C@@H](C)O[C@H]3O[C@@H]4[C@@H](O)[C@H](NC)[C@H](O)[C@H](NC)[C@H]4O[C@]32O)cc1 [compound 3, 3′-(R)-3′-[(4-ethyl)benzylaminomethyl)]dihydrospectinomycin Trihydrochloride]
- MIC ([1]; Staphylococcus aureus): 12.5 to 25 µg/mL
- zone of inhibition at 4 µg/disc [2]: 15 to 17 mm
- zone of inhibition at 4 µg/disc [3]: 18 mm
- MIC ([4]; Enterococcus faecalis, ATCC33186, read-out: MIC E.f.): 12.5 to 25 µg/mL
- MIC [5]: 1.6 to 3.1 µg/mL
- zone of inhibition at 4 µg/disc [6]: 16 mm
- MIC [7]: 50 µg/mL
- MIC [8]: 100 to 200 µg/mL
- MIC [9]: 12.5 to 25 µg/mL
- MIC [10]: 200 µg/mL
- MIC [11]: 100 to 200 µg/mL
- MIC [12]: 12.5 µg/mL
- MIC (Moraxella catarrhalis): 3.1 to 6.3 µg/mL
- zone of inhibition at 4 µg/disc [13]: 28 to 40 mm
- MIC (E. coli K12 ΔtolC): 6.3 µg/mL
- MIC [14, 24]: 1.6 to 3.1 µg/mL
- MIC [14, 25]: 3.1 µg/mL
- MIC [15]: 12.5 to 25 µg/mL
- MIC [16]: 12.5 µg/mL
- MIC [17, 26]: > 200 µg/mL
- MIC [17, 27]: > 200 µg/mL
- MIC (Listeria monocytogenes): 6.3 µg/mL
- MIC (Bacillus anthracis): 12.5 to 25 µg/mL
- MIC [18]: 25 µg/mL
- MIC [19]: 100 to 200 µg/mL
- MIC (Yersinia pestis): > 200 µg/mL
- MIC [20, 28]: 6.3 µg/mL
- MIC [20, 29]: 1.6 µg/mL
- MIC [20, 30]: 3.1 µg/mL
- MIC [20, 31]: 1.6 µg/mL
- MIC [20, 32]: 6.3 µg/mL
- MIC [20, 33]: 3.1 µg/mL
- MIC [20, 34]: 3.1 µg/mL
- MIC [20, 35]: 6.3 µg/mL
- MIC [20, 36]: 6.3 µg/mL
- MIC [20, 37]: 6.3 µg/mL
- MIC [20, 38]: 3.1 µg/mL
- MIC [21]: 25 to 50 µg/mL
- MIC [22]: 3.1 to 6.3 µg/mL
- MIC [23]: 1.6 to 3.1 µg/mL

SMILES: CCOc1ccc(CNC[C@]2(O)C[C@@H](C)O[C@H]3O[C@@H]4[C@@H](O)[C@H](NC)[C@H](O)[C@H](NC)[C@H]4O[C@]32O)cc1 [compound 4, 3′-(R)-3′-[(4-ethoxyl)benzylaminomethyl)]dihydrospectinomycin Trihydrochloride]
- MIC ([1]; Staphylococcus aureus (NRS70)): 50 µg/mL
- zone of inhibition at 4 µg/disc [2]: 15 to 18 mm
- zone of inhibition at 4 µg/disc [3]: 16 to 18 mm
- MIC ([4]; ATCC33186, Enterococcus faecalis (ATCC 33186), read-out: MIC E.f.): 12.5 to 25 µg/mL
- MIC [5]: 0.8 to 3.1 µg/mL
- zone of inhibition at 4 µg/disc [6]: 15 to 17 mm
- MIC [7]: 25 to 50 µg/mL
- MIC [8]: 100 to 200 µg/mL
- MIC [9]: 25 to 50 µg/mL
- MIC [10]: ≥ 200 µg/mL
- MIC [11]: > 200 µg/mL
- MIC [12]: 25 to 50 µg/mL
- MIC (Moraxella catarrhalis): 3.1 to 6.3 µg/mL
- zone of inhibition at 4 µg/disc [13]: 18 to 33 mm
- MIC (E. coli K12 ΔtolC): 6.3 µg/mL
- MIC [14, 24]: 1.6 to 3.1 µg/mL
- MIC [14, 25]: 1.6 µg/mL
- MIC [15]: 100 µg/mL
- MIC [16]: 12.5 µg/mL
- MIC [17, 26]: > 200 µg/mL
- MIC [17, 27]: > 200 µg/mL
- MIC (Listeria monocytogenes): 6.3 to 12.5 µg/mL
- MIC (Bacillus anthracis): 100 µg/mL
- MIC [18]: 25 µg/mL
- MIC [19]: 100 to 200 µg/mL
- MIC (Yersinia pestis): > 200 µg/mL
- MIC [20, 28]: 6.3 µg/mL
- MIC [20, 29]: 0.8 µg/mL
- MIC [20, 30]: 1.6 µg/mL
- MIC [20, 31]: 0.8 µg/mL
- MIC [20, 32]: 3.1 µg/mL
- MIC [20, 33]: 1.6 µg/mL
- MIC [20, 34]: 3.1 µg/mL
- MIC [20, 35]: 3.1 µg/mL
- MIC [20, 36]: 3.1 µg/mL
- MIC [20, 37]: 3.1 µg/mL
- MIC [20, 38]: 1.6 µg/mL
- MIC [21]: > 200 µg/mL
- MIC [22]: 12.5 to 25 µg/mL
- MIC [23]: 1.6 to 3.1 µg/mL
